This note sets out measurements from patent US12037415B2, “Peptide and pharmaceutical composition for treating an eye disease comprising the same as an active pharmaceutical ingredient” (YuYu Pharma, Inc., priority 2017, dated 2024).

Starred links: 1 amine or outer side, 2 acyl side, 3 side chain; linkers in the order of their positions; H or OH if unused. Non-standard residues stand in square brackets, D forms with d. Residues, ends and D or L forms follow the SMILES beside them. ξ: configuration not given here. X1 = O=C([C@H](CCCCO)N[*:1])[*:2]; Hyp = O=C(O)[C@@H]1C[C@@H](O)CN1; Ile(3ξ) = CCC(C)[C@H](N)C(=O)O; Thr(3ξ) = CC(O)[C@H](N)C(=O)O; hSer = N[C@@H](CCO)C(=O)O

Series [1] has as its system rats with dry eye syndrome (extraorbital lacrimal gland excision, ELGE). Kind of series: Amount of tear secretion (Schirmer test, cobalt chloride paper) in rats with ELGE-induced dry eye syndrome. It is filed as in vivo, rat. To be noted: 0.3% solution (DS 3%), administration for 14 days.
From the text: (§1) In order to evaluate the eye protection effect on dry eye syndrome by YDE-001 to YDE-028 prepared in Working Example 1, a total of 320 Sprague-Dawley-type male rats (OrientBio, Seungnam, Korea) were adapted for 7 days. Thereafter, dry eye syndrome was induced in 264 test rats through extraorbital lacrimal gland excision (hereinafter, ELGE). 8 test rats without the eye abnormality were subjected to a sham operation as a control group.
(§2) The rats were systemically anesthetized by inhaling a mixed gas of 2% to 3% of isoflurane (Hana Pharm. Co., Hwasung, Korea), 70% of N2O, and 28.6% of O2 using a rodent anesthesia machine (Surgivet, Waukesha, Wis., USA) and a ventilator (Model 687, Harvard Apparatus, Cambridge, UK). Thereafter, the extraorbital lacrimal gland located in the subdermal area above the masseter muscle and under the optic nerve was excised through a transverse incision in a size of 10 mm on the anterior part of the left ear tragus. The skin was sutured by a general method. […] After 6 days following the ELGE operation, confirmation was performed through the Schirmer test by measuring the amount of tear secretion whether dry eye syndrome had been induced. Meanwhile, each rat of the control group with the sham operation was checked for the presence and location of the extraorbital lacrimal gland through a skin incision, and the skin was then sutured without the excision thereof (FIG. 134).
(§3) In addition, in order to evaluate the eye protection effect on dry eye syndrome by YDE-029 to YDE-043 prepared in Working Example 1, a total of 200 Sprague-Dawley-type male rats (OrientBio, Seungnam, Korea) were adapted for 7 days. Dry eye syndrome was induced in 165 test rats through the ELGE. 8 test rats without the eye abnormality were subjected to the sham operation as a control group. The ELGE was carried out as described above.
(§4) For YDE-001 to YDE-028, YY-102 and the 28 YDE-series were each dissolved in physiological saline at a concentration of 3 mg/ml and administered at a dose of 5 μl/eye at 9:30 am and 3:30 pm daily for 14 days after 7 days from the ELGE operation for a total of 28 times. The DS solution was dissolved in physiological saline at a concentration of 30 mg/ml and administered at a dose of 5 μl/eye twice a day for 14 days after 7 days from the ELGE operation for a total of 28 times. For the sham control and the ELGE control groups, the same stimulation as the administration was applied. In order to prevent excessive eye dryness, the same volume of physiological saline was applied in the same manner in place of the test substances.
as §4, with “Further, For YDE-029” for “For YDE-001”, “Further, For YDE-029 to YDE-043,” for “For YDE-001 to YDE-028,”, “YDE-029 to YDE-043, YY-102 and” for “YDE-001 to YDE-028, YY-102 and”, “and the 15 YDE-series were” for “and the 28 YDE-series were”, “the test substances (FIG. 137).” for “the test substances.”
After 6 days from the ELGE surgery, the changes in the amount of tear secretion were measured at day 7 and day 14 after the administration of YDE-001 to YDE-043. The amount of tear secretion was measured by the […] travel distance of tears absorbed by cobalt chloride paper in a size of 1×15 mm (Toyo Roshi Kaisha, Japan).
The cobalt chloride paper was placed in the lateral canthus of a rat for 60 seconds to absorb tears (FIG. 139). The length of the area absorbed from the corner of the cobalt chloride paper was measured with an electronic digital caliper (Mytutoyo, Tokyo, Japan) (FIG. 138).

A short description of series [2]: Stability in aqueous solution, amount of related substances under long-term storage conditions. To be noted: glass vial, 25° C., 75% RH. The format is physicochemical. As to the method:
In order to confirm the stability of each test substance in an aqueous solution, […] of each sample was dissolved in 1 ml of water to a concentration of 1 mg/ml, which was then charged to a glass vial, plugged with a rubber cap, sealed with an aluminum cap, and stored under long-term storage conditions (25° C., 75% RH). The stability of the test substance was evaluated by measuring the amount of related substances at the time of one week, two weeks, four weeks, eight weeks, and twelve weeks under the long-term storage conditions.

The subject of series [3] is cornea of rats with dry eye syndrome (ELGE). Briefly: Corneal permeability of fluorescent dye (corneal damage) in rats with ELGE-induced dry eye syndrome. It is filed as in vivo, rat. To be noted: 0.3% solution, day 14 after the administration.
From the text: as §1, §2, §3, §4
as §4, with “Further, For YDE-029” for “For YDE-001”, “Further, For YDE-029 to YDE-043,” for “For YDE-001 to YDE-028,”, “YDE-029 to YDE-043, YY-102 and” for “YDE-001 to YDE-028, YY-102 and”, “and the 15 YDE-series were” for “and the 28 YDE-series were”, “the test substances (FIG. 137).” for “the test substances.”
After YDE-001 to YDE-028 were each administered to the eyes […], the changes in the corneal permeability were checked.
In order to measure the corneal permeability, Zolethyl 50™ (Virbac Lab., Carros, France), an animal anesthetic, was intraperitoneally injected at a dose of 25 mg/kg. Thereafter, saline containing a 1% (v/v) fluorescent solution (fluorescein sodium salt, Tokyo Kasei Kogyo Co., Tokyo, Japan) was applied to the eyes at a dose of 5 μl/eye. The eyes thus treated were closed and fixed with a tape. After 1 hour, the remaining fluorescent solution was removed using a cotton swab (FIG. 142). […]

The mark [4] stands for this setting: study of YDE-001 to YDE-028 (Table 16).
Where [5] appears, read: study of YDE-029 to YDE-043 (Table 17).

With `O=c1ccn([C@@H]2O[C@H](COP(=O)(O)OP(=O)(O)OP(=O)(O)OP(=O)(O)OC[C@H]3O[C@@H](n4ccc(=O)[nH]c4=O)[C@H](O)[C@@H]3O)[C@@H](O)[C@H]2O)c(=O)[nH]1` [DS, diquafosol sodium, reference compound], the “Amount of tear secretion as compared with the ELGE control group” value in series [1] (study of YDE-001 to YDE-028) and in series [1] (study of YDE-029 to YDE-043) was “increased” in each case.
For the molecule `CC(C)C[C@H](NC(=O)CNC(=O)[C@H](Cc1ccc(O)cc1)NC(=O)[C@H](CCC(N)=O)NC(=O)CNC(=O)[C@@H]1C[C@@H](O)CN1)C(=O)N[C@@H](C)C(=O)NCC(=O)N1CCC[C@H]1C(=O)N[C@@H](CCCCN)C(=O)O` [YDE-013, HyP-Gly-Gln-Tyr-Gly-Leu-Ala-Gly-Pro-Lys] (H-[Hyp]GQYGLAGPK-OH), the “Amount of related substances (%; after 12 weeks)” value (shortened to “Amount … (%; after 12 weeks)”) in series [2] is 5.92%. Besides, the “Permeability of fluorescent dye (%)” value in series [3] (setting [4]) is recorded as 32.24 ± 7.84%.
On the same counts, the results for `CC(C)C[C@H](NC(=O)CNC(=O)[C@H](Cc1c[nH]c2ccccc12)NC(=O)[C@H](CCC(N)=O)NC(=O)CNC(=O)[C@@H]1C[C@@H](O)CN1)C(=O)N[C@@H](C)C(=O)NCC(=O)N1CCC[C@H]1C(=O)N[C@@H](CCCCN)C(=O)O` [YDE-014, HyP-Gly-Gln-Trp-Gly-Leu-Ala-Gly-Pro-Lys] (H-[Hyp]GQWGLAGPK-OH) are 6.72% and 31.15 ± 10.87%.
On the same counts, the results for `CC(C)C[C@H](NC(=O)[C@@H](NC(=O)[C@H](CC(=O)O)NC(=O)[C@H](CCC(N)=O)NC(=O)CNC(=O)[C@@H]1C[C@@H](O)CN1)C(C)C)C(=O)N[C@@H](C)C(=O)NCC(=O)N1CCC[C@H]1C(=O)N[C@@H](CCCCN)C(=O)O` [YDE-015, HyP-Gly-Gln-Asp-Val-Leu-Ala-Gly-Pro-Lys] (H-[Hyp]GQDVLAGPK-OH) are 13.05% and 15.95 ± 6.48%.
On the same counts, the results for `CCC(C)[C@H](NC(=O)[C@H](CC(=O)O)NC(=O)[C@H](CCC(N)=O)NC(=O)CNC(=O)[C@@H]1C[C@@H](O)CN1)C(=O)N[C@@H](CC(C)C)C(=O)N[C@@H](C)C(=O)NCC(=O)N1CCC[C@H]1C(=O)N[C@@H](CCCCN)C(=O)O` (stereo partly drawn) [YDE-016, HyP-Gly-Gln-Asp-Ile-Leu-Ala-Gly-Pro-Lys] (H-[Hyp]GQD[Ile(3ξ)]LAGPK-OH) are 11.33% and 24.57 ± 10.34%.
Turning to `CC(C)C[C@H](NC(=O)[C@H](C)NC(=O)[C@H](CC(=O)O)NC(=O)[C@H](CCC(N)=O)NC(=O)CNC(=O)[C@@H]1C[C@@H](O)CN1)C(=O)N[C@@H](C)C(=O)NCC(=O)N1CCC[C@H]1C(=O)N[C@@H](CCCCN)C(=O)O` [YDE-018, HyP-Gly-Gln-Asp-Ala-Leu-Ala-Gly-Pro-Lys] (H-[Hyp]GQDALAGPK-OH), in series [2], the “Amount … (%; after 12 weeks)” value was determined as 25.39%. Besides, in series [3] (setting [4]), the “Permeability of fluorescent dye (%)” value was found to be 38.19 ± 10.96%.
With `CC(C)C[C@H](NC(=O)[C@H](CO)NC(=O)[C@H](CC(=O)O)NC(=O)[C@H](CCC(N)=O)NC(=O)CNC(=O)[C@@H]1C[C@@H](O)CN1)C(=O)N[C@@H](C)C(=O)NCC(=O)N1CCC[C@H]1C(=O)N[C@@H](CCCCN)C(=O)O` [YDE-023, HyP-Gly-Gln-Asp-Ser-Leu-Ala-Gly-Pro-Lys] (H-[Hyp]GQDSLAGPK-OH), the “Amount … (%; after 12 weeks)” value in series [2] is listed as 30.66%. The “Permeability of fluorescent dye (%)” value in series [3] (setting [4]) was 26.51 ± 8.18%.
On the same counts, the results for `CC(C)C[C@H](NC(=O)[C@@H](NC(=O)[C@H](CC(=O)O)NC(=O)[C@H](CCC(N)=O)NC(=O)CNC(=O)[C@@H]1C[C@@H](O)CN1)C(C)O)C(=O)N[C@@H](C)C(=O)NCC(=O)N1CCC[C@H]1C(=O)N[C@@H](CCCCN)C(=O)O` (stereo partly drawn) [YDE-024, HyP-Gly-Gln-Asp-Thr-Leu-Ala-Gly-Pro-Lys] (H-[Hyp]GQD[Thr(3ξ)]LAGPK-OH) are 20.59% and 30.63 ± 10.41%.
With `CC(C)C[C@H](NC(=O)CNC(=O)[C@H](CCO)NC(=O)[C@H](CCC(N)=O)NC(=O)CNC(=O)[C@@H]1C[C@@H](O)CN1)C(=O)N[C@@H](C)C(=O)NCC(=O)N1CCC[C@H]1C(=O)N[C@@H](CCCCN)C(=O)O` [YDE-026, HyP-Gly-Gln-Ser(Homo)-Gly-Leu-Ala-Gly-Pro-Lys] (H-[Hyp]GQ[hSer]GLAGPK-OH), in series [2], the “Amount … (%; after 12 weeks)” value was 10.15%. Further, the “Permeability of fluorescent dye (%)” value in series [3] (setting [4]) is reported as 22.63 ± 11.23%.
Consider `CC(C)C[C@H](NC(=O)CNC(=O)[C@H](CC(C)C)NC(=O)[C@H](CCC(N)=O)NC(=O)CNC(=O)[C@@H]1C[C@@H](O)CN1)C(=O)N[C@@H](C)C(=O)NCC(=O)N1CCC[C@H]1C(=O)N[C@@H](Cc1ccc(O)cc1)C(=O)O` [YDE-029, HyP-Gly-Gln-Leu-Gly-Leu-Ala-Gly-Pro-Tyr] (H-[Hyp]GQLGLAGPY-OH), for which the “Amount of tear secretion as compared with the ELGE control group” value in series [1] (study of YDE-029 to YDE-043) is “did not show any significant changes”. Moreover, in series [3] (setting [5]), the “Permeability of fluorescent dye (%)” value came to 63.45 ± 11.57%.
On the same counts, the results for `CC(C)C[C@H](NC(=O)[C@@H]1CCCN1C(=O)CNC(=O)[C@H](C)NC(=O)[C@H](CC(C)C)NC(=O)CNC(=O)[C@H](CC(C)C)NC(=O)[C@H](CCC(N)=O)NC(=O)CNC(=O)[C@@H]1C[C@@H](O)CN1)C(=O)O` [YDE-030, HyP-Gly-Gln-Leu-Gly-Leu-Ala-Gly-Pro-Leu] (H-[Hyp]GQLGLAGPL-OH) are “did not show any significant changes” and 30.60 ± 13.61%.
On the same counts, the results for `CC(C)C[C@H](NC(=O)CNC(=O)[C@H](CC(C)C)NC(=O)[C@H](CCC(N)=O)NC(=O)CNC(=O)[C@@H]1C[C@@H](O)CN1)C(=O)N[C@@H](C)C(=O)NCC(=O)N1CCC[C@H]1C(=O)N[C@@H](CCC(N)=O)C(=O)O` [YDE-032, HyP-Gly-Gln-Leu-Gly-Leu-Ala-Gly-Pro-Gln] (H-[Hyp]GQLGLAGPQ-OH) are “did not show any significant changes” and 58.90 ± 19.81%.
On the same counts, the results for `CC(C)C[C@H](NC(=O)CNC(=O)[C@H](CC(C)C)NC(=O)[C@H](CCC(N)=O)NC(=O)CNC(=O)[C@@H]1C[C@@H](O)CN1)C(=O)N[C@@H](C)C(=O)NCC(=O)N1CCC[C@H]1C(=O)N[C@@H](CCCCO)C(=O)O` [YDE-033, HyP-Gly-Gln-Leu-Gly-Leu-Ala-Gly-Pro-Nle(6-OH)] (H-[Hyp]GQLGLAGP[X1]-OH) are “did not show any significant changes” and 60.55 ± 21.22%.
